Assay results taken from patent US9938335B2, “Glucagon and GLP-1 co-agonist compounds” (Eli Lilly and Company, priority 2015, dated 2018).
Marks after values point to notes of the source that are not given here. Starred links: 1 amine or outer side, 2 acyl side, 3 side chain; linkers in the order of their positions; H or OH if unused. Non-standard residues stand in square brackets, D forms with d. Residues, ends and D or L forms follow the SMILES beside them. Groups on a side chain read outwards from the residue. *: point of attachment. C18 diacid = O=C(O)CCCCCCCCCCCCCCCCC(=O)*; γGlu = O=C(O)[C@H](CCC(=O)[*:2])N[*:1]; AEEA = NCCOCCOCC(=O)O; Aib = CC(C)(N)C(=O)O

Columns and labels:
hGLP-1-R [1] = target: T1, hGLP-1-R (Homo sapiens, UniProt P43220); test: hGLP-1R Binding Assay (SPA radioligand competition, 293HEK membranes); parameters: expressed in transfected cells; host or cells: 293HEK, stably transfected with plasmid phD, Hygromycin-selected; crude plasma membranes; conditions: read-out: Ki, nM ± SEM at the hGLP-1-R
DIO mice (C57BL/6) [2] = test: Acute treatment in DIO mice (PCSK9, FGF-21, cholesterol); type: in vivo, mouse; conditions: 30 nmol/kg sc, 16 hours post dose
Method: In order to investigate metabolic pathways involved with the treatment of compounds of the present invention independent of weight loss, compounds are tested in DIO mice (C57BL/6) acutely. The mice used are three to four months old on a high fat diet for at least 4 weeks. Animals are individually housed in a temperature-controlled (24° C.) facility with a 12 hour light/dark cycle (lights on 6:00), and free access to food and water. Vehicle or testing compounds were administered to mice by subcutaneous injection at 16:00 the day before the study day. Animals were sacrificed 16 hours later to collect blood via cardia puncture. Statistics are analyzed using ANOVA with Dunnett's comparison for JMP-6. Significance is denoted at p≤0.05 vs vehicle.
Food intake was decreased to a similar level in all treatment groups, which may indicate that changes in cholesterol, PCSK9 and FGF-21 are food-intake independent.

hGLP-1-R [3] = target: T1, hGLP-1-R; test: Functional hGLP-1-R assay (cAMP HTRF, HEK-293 clonal cell line); type: cell-based; parameters: expressed in transfected cells; host or cells: HEK-293 clonal cell line over-expressing the receptor
Method: After a 60 minute incubation at room temperature, the resulting increase in intracellular cAMP (adenosine 3′,5′-cyclic monophosphate) is quantitatively determined using the CisBio cAMP Dynamic 2 HTRF Assay Kit (62AM4PEJ). cAMP levels within the cell are detected by adding the cAMP-d2 conjugate in cell lysis buffer (20 μl) followed by the antibody anti-cAMP-Eu^3+-Cryptate, also in cell lysis buffer (20 μl).
A relative EC50 value and percent top (Emax) are derived by non-linear regression analysis using the percent maximal response vs. the concentration of peptide added, fitted to a four-parameter logistic equation (Genedata Screener®).
Means for EC50 are expressed as Geometric means±standard error of the mean (SEM) with the number of replicates (n) indicated in parenthesis. Means for Emax are expressed as the arithmetic mean±standard error. ND signifies that agonist activity was not detected.

[4] = Viscosity (Rheosense mVroc Viscometer); type: physicochemical; conditions: approximately 10 mg/mL peptide in 10 mM Tris + 3 mg/mL m-cresol at pH 8.0; 25° C.; shear rate 1934 s^−1
Method: Viscosity of compounds of the present invention is measured in a Rheosense mVroc Viscometer with the following settings:
(a) Syringe size: 500 μL syringe
(b) Flow Rate: 100 μL/min flow rate
(c) Average Temperature: 25° C.
(d) Shear Rate: 1934 s^−1
Dry powder (compound) is weighed out, dissolved in water as a cloudy precipitate, and titrated to approximately pH 8.0 with 1N NaOH. The solution is sonicated and swirled by hand until peptide is in solution. Samples are sterile filtered (0.22 μm PVDF filters). Samples are then analyzed by UV-Vis to assess stock solution concentrations. Solutions are diluted to final concentration using 3× m-cresol in 10 mM Tris pH 8.0 buffer to final concentrations of approximately 10 mg/mL peptide by weight in 10 mM Tris+3 mg/mL m-cresol at pH 8.0. Samples were filtered through 0.22 μm filters immediately prior to viscosity analysis. 25 μL of sample are removed to verify concentration by RP-HPLC before and after analysis.
Water and buffer control samples are measured before and after each sample is analyzed. The instrument is washed with buffer (3×) in between analysis of each sample. The samples are loaded into individual syringes and analyzed. The first measurement is not included in the final calculation to allow for equilibration with the system. Samples are then analyzed in triplicate (n=3).
The viscosity of Compounds 1-4 was measured essentially as described in this assay.

hGcg-R = hGcg-R (Homo sapiens, UniProt P47871); test: hGcg-R Binding Assay (SPA radioligand competition, 293HEK membranes); conditions: read-out: Ki, nM ± SEM at the hGcg-R
DIO mice (C57BL/6) [5] = test: Glycemic control in DIO mice; type: in vivo, mouse; conditions: for Blood glucose (mg/dL) post-injection, Mean: male DIO mice, 25 nmol/kg sc once
Method: Five to six months old male DIO mice (C57BL/6) from Taconic Biosciences are used in this study. Animals are individually housed in a temperature-controlled (24° C.) facility with a 12 hour light/dark cycle (lights on 6:00), and free access to food and water. After two weeks acclimation to the facility, the mice are randomized to treatment groups (n=7/group) based on their body weight and blood glucose. Mice are injected subcutaneously once with vehicle or compounds (25 nmol/kg). Blood glucose is monitored 2 and 8 hours post-injection and then once a day at 08:00 for 4 days. OGTTs are performed at 44 and 78 hours post the peptide injection. Statistics are analyzed using ANOVA with Dunnett's comparison by JMP 6. Significance is denoted at p≤0.05 vs vehicle.

DIO mice (C57BL/6) [6] = test: Chronic treatment in DIO mice (body weight, fat, food intake); type: in vivo, mouse
Summary of the method: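 C57BL/6 DIO mice aged 5–6 months, individually housed and randomized (N=7/group) on body weight and NMR fat mass, received SC injections on Days 1, 4, 7, 10 and 13. Body weight and food intake were measured before each injection, with fat mass re-measured by NMR at study end. Percent body-weight change was tested by ANOVA/Dunnett vs vehicle (p≤0.05).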

[7] = 15 nmol/kg sc every three days for 15 days
[8] = 30 nmol/kg sc every three days for 15 days

T1 sequence (P43220 24-463): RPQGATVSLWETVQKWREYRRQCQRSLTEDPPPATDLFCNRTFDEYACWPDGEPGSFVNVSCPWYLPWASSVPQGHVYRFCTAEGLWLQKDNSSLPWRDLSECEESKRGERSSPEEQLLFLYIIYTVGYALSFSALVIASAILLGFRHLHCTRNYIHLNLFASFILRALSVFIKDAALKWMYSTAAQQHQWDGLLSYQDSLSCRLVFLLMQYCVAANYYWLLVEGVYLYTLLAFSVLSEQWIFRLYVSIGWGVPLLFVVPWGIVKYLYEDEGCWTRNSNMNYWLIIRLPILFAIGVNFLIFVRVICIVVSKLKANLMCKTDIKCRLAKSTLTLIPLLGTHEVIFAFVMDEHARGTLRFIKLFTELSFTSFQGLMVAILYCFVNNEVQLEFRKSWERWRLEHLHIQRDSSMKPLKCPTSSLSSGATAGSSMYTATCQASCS
Sequence of hGcg-R (P47871 26-477): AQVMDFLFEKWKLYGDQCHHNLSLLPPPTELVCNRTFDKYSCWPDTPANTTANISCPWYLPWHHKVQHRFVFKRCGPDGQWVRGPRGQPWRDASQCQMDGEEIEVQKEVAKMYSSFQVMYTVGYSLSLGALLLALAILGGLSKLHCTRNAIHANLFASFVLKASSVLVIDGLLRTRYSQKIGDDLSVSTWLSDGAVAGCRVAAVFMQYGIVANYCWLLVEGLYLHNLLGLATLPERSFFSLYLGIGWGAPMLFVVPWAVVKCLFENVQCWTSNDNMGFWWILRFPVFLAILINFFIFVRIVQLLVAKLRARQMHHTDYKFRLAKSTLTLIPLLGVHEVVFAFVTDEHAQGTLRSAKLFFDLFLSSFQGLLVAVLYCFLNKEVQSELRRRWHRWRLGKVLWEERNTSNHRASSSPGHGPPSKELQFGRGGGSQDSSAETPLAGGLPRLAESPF

CC(C)C[C@H](NC(=O)[C@H](CC(C)C)NC(=O)[C@H](Cc1c[nH]c2ccccc12)NC(=O)[C@H](CCC(=O)O)NC(=O)[C@@H](NC(=O)[C@H](Cc1ccccc1)NC(=O)[C@H](CCC(=O)O)NC(=O)[C@H](CCCCNC(=O)COCCOCCNC(=O)COCCOCCNC(=O)CC[C@H](NC(=O)CC[C@H](NC(=O)CCCCCCCCCCCCCCCCC(=O)O)C(=O)O)C(=O)O)NC(=O)[C@H](C)NC(=O)[C@H](CCCCN)NC(=O)[C@H](CCCCN)NC(=O)[C@H](CCC(=O)O)NC(=O)[C@H](CC(=O)O)NC(=O)[C@H](CC(C)C)NC(=O)[C@H](Cc1ccc(O)cc1)NC(=O)[C@H](CCCCN)NC(=O)[C@H](CO)NC(=O)[C@H](Cc1ccc(O)cc1)NC(=O)[C@H](CC(=O)O)NC(=O)[C@H](CO)NC(=O)[C@@H](NC(=O)[C@H](Cc1ccccc1)NC(=O)[C@@H](NC(=O)CNC(=O)[C@H](CCC(N)=O)NC(=O)C(C)(C)NC(=O)[C@@H](N)Cc1c[nH]cn1)[C@@H](C)O)[C@@H](C)O)C(C)C)C(=O)N[C@@H](CO)C(=O)NCC(=O)NCC(=O)N1CCC[C@H]1C(=O)N[C@@H](CO)C(=O)N[C@@H](CO)C(=O)NCC(N)=O [Compound 3] (H-H[Aib]QGTFTSDYSKYLDEKKAK([AEEA-AEEA-γGlu-γGlu-C18 diacid])EFVEWLLSGGPSSG-NH2; N-terminus assumed)
Ki (hGLP-1-R [1]): 8.68 ± 1.6 nM
Cholesterol (% of vehicle) (DIO mice (C57BL/6) [2]): 55.6* % of vehicle
FGF-21 (% of vehicle) (DIO mice (C57BL/6) [2]): 1124* % of vehicle
PCSK9 (% of vehicle) (DIO mice (C57BL/6) [2]): 15.6* % of vehicle
Emax (hGLP-1-R [3]; HEK293): 105 ± 5%
EC50 (hGLP-1-R [3]; cAMP, 60 minute incubation, 0.25% FBS, 0.05% BSA, geometric mean, read-out: Human GLP-1-R EC50, nM ± SEM (n)): 34.3 ± 9.4 nM
500 μL syringe Viscosity [4]: 1.03 cP or mPa-s
Ki (hGcg-R): 37.3 ± 4.2 nM
44 hours Glucose AUC (% of Vehicle) (DIO mice (C57BL/6) [5]; OGTT 44 hours post-injection, 25 nmol/kg sc): 35* % of Vehicle
78 hours Glucose AUC (% of Vehicle) (DIO mice (C57BL/6) [5]; OGTT 78 hours post-injection, 25 nmol/kg sc): 76* % of Vehicle
glucose excursions post an oral glucose challenge (DIO mice (C57BL/6) [5]; OGTTs at 44 and 78 hours post injection, 25 nmol/kg): lower glucose excursions post an oral glucose challenge at 44 hour
Blood glucose (mg/dL) post-injection, Mean (DIO mice (C57BL/6) [5]; 2 hours post-injection): 173.4 mg/dL
Blood glucose (mg/dL) post-injection, Mean (DIO mice (C57BL/6) [5]; 8 hours post-injection): 81.4 mg/dL
Blood glucose (mg/dL) post-injection, Mean (DIO mice (C57BL/6) [5]; 24 hours post-injection): 96.6 mg/dL
Blood glucose (mg/dL) post-injection, Mean (DIO mice (C57BL/6) [5]; 48 hours post-injection): 95.8 mg/dL
Blood glucose (mg/dL) post-injection, Mean (DIO mice (C57BL/6) [5]; 72 hours post-injection): 104.7 mg/dL
Blood glucose (mg/dL) post-injection, Mean (DIO mice (C57BL/6) [5]; 96 hours post-injection): 141.1 mg/dL
Body Fat (% change vs. vehicle from Day 1) (DIO mice (C57BL/6) [6]; [7]): −32* %
Body Weight (% change vs. vehicle from Day 1) (DIO mice (C57BL/6) [6]; [7]): −17* %
Body Fat (% change vs. vehicle from Day 1) (DIO mice (C57BL/6) [6]; [8]): −67* %
Body Weight (% change vs. vehicle from Day 1) (DIO mice (C57BL/6) [6]; [8]): −37* %
